Active and inactive are the calls of the source.

Experiment [1] concerns Escherichia coli. In words: microbe, parasite or virus in culture.
Experiment [2] concerns the target Beta Lactamase (Pseudomonas aeruginosa, UniProt Q932Y6). In words: BLA reporter interference, concentration series – BLA reporter cells, FRET fluorescence, artefact control for TLR9-MyD88 binding inhibitor project, dose response (AID 588341).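 Also: cell based assay in CHO-K1 cells stably expressing beta-lactamase.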 The experiment is classed as cell-based.
For experiment [3], the target named is Wee1-like protein kinase (Homo sapiens, UniProt P30291). In words: Dose Response Cell-based Assay for Inhibitors of Wee1 Degradation. [Related pubchem assays: 1410, 1321 ]. The experiment is classed as functional.
Experiment [4] has as its system CHO. In words: CHO cell viability loss, potency – luminescence, cytotoxicity control for TLR9-MyD88 binding inhibitor project, dose response (AID 588339).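 Also: CHO cells stably coexpressing TLR9 and MyD88 fusions from primary screen; compound exposure lasted 48 hours before viability readout.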 In kind it is functional, cell-based, hamster. Particulars: Cricetulus griseus.
Experiment [5] has as its target Lysine-specific demethylase 4C (Homo sapiens, UniProt Q9H3R0). In words: inhibition of JMJD2C H3K9me3 demethylation – biochemical, DELFIA europium, cherry-picked samples, dose response (AID 488835). The experiment is classed as functional.
For experiment [6], the target named is T1, Caspase-3 (Homo sapiens, UniProt P42574).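 Also: Dose-response selectivity test against caspase-3 for candidate inhibitors of sentrin-specific proteases (SENPs).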
T1 sequence (P42574 whole entry): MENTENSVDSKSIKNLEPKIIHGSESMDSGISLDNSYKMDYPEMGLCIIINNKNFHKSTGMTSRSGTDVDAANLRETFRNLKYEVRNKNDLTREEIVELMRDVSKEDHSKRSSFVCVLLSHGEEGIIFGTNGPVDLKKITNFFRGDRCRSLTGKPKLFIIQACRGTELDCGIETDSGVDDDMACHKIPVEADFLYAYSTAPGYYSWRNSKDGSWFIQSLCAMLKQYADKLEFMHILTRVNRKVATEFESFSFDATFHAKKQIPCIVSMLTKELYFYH
The experiment is classed as functional.

Experiment [7] deals with T2, Sentrin-specific protease 8 (Homo sapiens, UniProt Q96LD8).
T2 sequence (Q96LD8 whole entry): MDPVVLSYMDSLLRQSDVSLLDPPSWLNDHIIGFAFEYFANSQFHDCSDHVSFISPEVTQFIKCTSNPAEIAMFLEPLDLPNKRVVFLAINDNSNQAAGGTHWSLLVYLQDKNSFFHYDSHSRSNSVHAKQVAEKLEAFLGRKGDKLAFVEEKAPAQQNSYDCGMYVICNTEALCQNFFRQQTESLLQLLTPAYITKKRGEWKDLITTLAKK
The experiment is classed as functional.

Experiment [8] concerns the target T3, Serine/threonine-protein phosphatase (Homo sapiens, UniProt Q9BPW0).
T3 sequence (Q9BPW0 whole entry): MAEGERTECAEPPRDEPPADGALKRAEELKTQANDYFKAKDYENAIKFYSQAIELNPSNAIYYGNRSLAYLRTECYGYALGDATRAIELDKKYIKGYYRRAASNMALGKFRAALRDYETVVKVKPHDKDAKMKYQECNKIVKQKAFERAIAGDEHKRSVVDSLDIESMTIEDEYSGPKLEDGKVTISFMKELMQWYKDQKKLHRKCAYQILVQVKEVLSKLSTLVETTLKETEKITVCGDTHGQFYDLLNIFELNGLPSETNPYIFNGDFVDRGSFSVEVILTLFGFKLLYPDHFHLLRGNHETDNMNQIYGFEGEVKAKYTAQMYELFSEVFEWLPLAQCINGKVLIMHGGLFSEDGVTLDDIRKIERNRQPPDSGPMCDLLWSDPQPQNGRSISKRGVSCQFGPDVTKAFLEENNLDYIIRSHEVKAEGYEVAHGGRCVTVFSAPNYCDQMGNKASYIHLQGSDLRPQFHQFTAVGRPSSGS
Nature of the experiment: inhibition of protein phosphatase 5 activity – biochemical, fluorescence, dose response (AID 2395).

The nature of experiment [9]: CellTiter-Glo luminescence survival assay, SW480 colon tumor line, concentration-response curve, half-maximal inhibitory concentration (AID 1117338). The experiment is classed as functional. In general terms: In ATP-based viability assays light output follows the ATP content of the culture.
In experiment [10] the target is Large T antigen (Simian virus 40, UniProt P03070). Nature of the experiment: A confirmatory biochemical assay using the ADP-Hunter methodology, purified TAg, and ATP to quantify activity of synthesized compounds that inhibit the ATPase activity of Tag (3). [Related pubchem assays (depositor defined):AID1903, AID1909, AID2102, AID2501, AID2615, AID2775, AID435001, AID449729]. Also on record: species or system Betapolyomavirus macacae.

The target in experiment [11] is Small ubiquitin-related modifier 2 (Homo sapiens, UniProt P61956). In words: disruption of SUMO2 interaction with SIM peptide – biochemical, fluorescence polarization, uHTS hits, selectivity assay for SUMO1 interaction inhibitor project, dose response (AID 624385). The experiment is classed as functional. Particulars: read-out: IC50_Mean. Background: Fluorescence polarisation rises when a labelled molecule tumbles more slowly, as on binding a larger partner.

The nature of experiment [12]: microbe, parasite or virus in culture. The experiment is classed as functional. The conditions noted are these: Mycobacterium tuberculosis.
The test system of experiment [13] is A-375. In words: proliferation inhibition in MITF-low A375 cells – cell-based, cherry-pick samples, set 2, counter-screen for MITF modulator project, dose response (AID 540335). Particulars: Homo sapiens. The experiment is classed as functional.
The nature of experiment [14]: Counterscreen for antagonists of the orexin 1 receptor (OX1R; HCRTR1): Fluorescence-based cell-based high throughput dose response assay to identify antagonists of the parental CHO cell line. [Related pubchem assays (depositor defined):AID434989, AID435008, AID463079, AID485270, AID492963, AID492964, AID492965, AID493232, AID504699, AID504701]. In kind it is functional.

Experiment [15] has as its target T4, Bcl-2-related protein A1 (Mus musculus, UniProt Q07440).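 Also: confirmatory dose–response counterscreen on Bfl-1, used to check hits from a UBC13 polyubiquitin inhibitor campaign.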
T4 sequence (Q07440 whole entry): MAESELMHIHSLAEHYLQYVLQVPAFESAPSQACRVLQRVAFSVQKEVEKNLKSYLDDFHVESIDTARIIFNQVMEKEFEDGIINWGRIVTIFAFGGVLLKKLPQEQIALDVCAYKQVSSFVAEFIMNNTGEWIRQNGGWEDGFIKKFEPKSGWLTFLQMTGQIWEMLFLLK
The experiment is classed as functional.

Experiment [16] addresses T5, Polyadenylate-binding protein 1 (Homo sapiens, UniProt P11940). Nature of the experiment: MLLE domain peptide-binding blockers, IC50 – biochemical, fluorescence polarization, FITC-PAM2 peptide, dose response (AID 602259). The conditions noted are these: read-out: IC50_Mean. The experiment is classed as functional.
The target of experiment [17] is T5, Polyadenylate-binding protein 1. Nature of the experiment: MLLE binding blockers, Cy5 peptide tracer – biochemical, fluorescence polarization, Cy5-PAM2 peptide, secondary, miRNA deadenylation inhibitor project, dose response (AID 602260). The experiment is classed as functional. Particulars: read-out: IC50_Mean.
For experiment [18], the system named is Vero. Nature of the experiment: cells. The experiment is classed as functional. Particulars: Chlorocebus sabaeus.
Experiment [19] is described as follows: DRD fibroblast viability loss – cell-based, non-viral oncogenic, luminescence, dose response (AID 1934). In kind it is functional. The conditions noted are these: Homo sapiens.
Experiment [20] concerns HEK293. Nature of the experiment: HEK293T cell viability loss, resazurin readout – resazurin fluorescence, cytotoxicity control for NF-kB activator project, SAR follow-up (AID 493251). The conditions noted are these: Homo sapiens. In kind it is functional, cell-based.
The nature of experiment [21]: reduction of Shn3 3'UTR-driven luciferase in osteoblasts – cell-based, Clone20 osteoblasts, firefly luciferase, cherry-picked, dose response (AID 624132).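 Also: firefly luciferase luminescence from reporter carrying the Shn3 3'UTR in osteoblasts.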 In kind it is functional.
Experiment [22] can be described thus: non-specific 3'UTR reporter inhibition in Clone20-Shn3RL – cell-based, Renilla luciferase, cherry-picked, counter-screen for Shn3 inhibitor project, dose response (AID 624133). The experiment is classed as functional. (In general: A counterscreen serves to expose hits that act by an unwanted route or on another target.)
Experiment [23] relates to Vero. Nature of the experiment: cells. The conditions noted are these: Chlorocebus sabaeus. In kind it is functional, cell-based.
Experiment [24] has as its system HEK293. In words: EBV LMP1 TES2 canonical NF-kB signalling blockers – cell-based, HEK293, luciferase, cherry-pick, dose response (AID 588343). The experiment is classed as functional. Particulars: Homo sapiens.
Experiment [25] is described as follows: NIH3T3 cell viability loss – ATP luminescence, mouse fibroblasts, counter-screen, dose response (AID 2010).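 Also: cells exposed to compound for about 90 hours before reading.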 In kind it is functional, cell-based.

T5 sequence (P11940 whole entry, the tested form may be a part): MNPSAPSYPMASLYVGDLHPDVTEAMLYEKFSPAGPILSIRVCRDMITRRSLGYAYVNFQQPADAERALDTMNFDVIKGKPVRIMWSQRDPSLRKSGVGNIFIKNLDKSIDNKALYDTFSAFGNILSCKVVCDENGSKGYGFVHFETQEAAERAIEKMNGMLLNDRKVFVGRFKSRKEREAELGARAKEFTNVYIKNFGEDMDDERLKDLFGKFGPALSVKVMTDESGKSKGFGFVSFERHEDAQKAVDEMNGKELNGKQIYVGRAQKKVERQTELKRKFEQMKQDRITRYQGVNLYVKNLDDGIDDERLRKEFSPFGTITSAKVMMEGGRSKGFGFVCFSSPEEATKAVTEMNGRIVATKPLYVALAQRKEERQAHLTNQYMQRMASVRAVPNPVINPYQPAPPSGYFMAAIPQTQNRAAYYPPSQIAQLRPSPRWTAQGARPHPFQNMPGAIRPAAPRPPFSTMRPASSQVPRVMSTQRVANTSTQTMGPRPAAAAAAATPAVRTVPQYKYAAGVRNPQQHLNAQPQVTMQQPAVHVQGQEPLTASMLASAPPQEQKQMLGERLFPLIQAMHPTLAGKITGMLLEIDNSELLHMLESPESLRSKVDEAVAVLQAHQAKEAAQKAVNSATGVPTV
Lysine-specific demethylase 4C, sequence (Q9H3R0 whole entry): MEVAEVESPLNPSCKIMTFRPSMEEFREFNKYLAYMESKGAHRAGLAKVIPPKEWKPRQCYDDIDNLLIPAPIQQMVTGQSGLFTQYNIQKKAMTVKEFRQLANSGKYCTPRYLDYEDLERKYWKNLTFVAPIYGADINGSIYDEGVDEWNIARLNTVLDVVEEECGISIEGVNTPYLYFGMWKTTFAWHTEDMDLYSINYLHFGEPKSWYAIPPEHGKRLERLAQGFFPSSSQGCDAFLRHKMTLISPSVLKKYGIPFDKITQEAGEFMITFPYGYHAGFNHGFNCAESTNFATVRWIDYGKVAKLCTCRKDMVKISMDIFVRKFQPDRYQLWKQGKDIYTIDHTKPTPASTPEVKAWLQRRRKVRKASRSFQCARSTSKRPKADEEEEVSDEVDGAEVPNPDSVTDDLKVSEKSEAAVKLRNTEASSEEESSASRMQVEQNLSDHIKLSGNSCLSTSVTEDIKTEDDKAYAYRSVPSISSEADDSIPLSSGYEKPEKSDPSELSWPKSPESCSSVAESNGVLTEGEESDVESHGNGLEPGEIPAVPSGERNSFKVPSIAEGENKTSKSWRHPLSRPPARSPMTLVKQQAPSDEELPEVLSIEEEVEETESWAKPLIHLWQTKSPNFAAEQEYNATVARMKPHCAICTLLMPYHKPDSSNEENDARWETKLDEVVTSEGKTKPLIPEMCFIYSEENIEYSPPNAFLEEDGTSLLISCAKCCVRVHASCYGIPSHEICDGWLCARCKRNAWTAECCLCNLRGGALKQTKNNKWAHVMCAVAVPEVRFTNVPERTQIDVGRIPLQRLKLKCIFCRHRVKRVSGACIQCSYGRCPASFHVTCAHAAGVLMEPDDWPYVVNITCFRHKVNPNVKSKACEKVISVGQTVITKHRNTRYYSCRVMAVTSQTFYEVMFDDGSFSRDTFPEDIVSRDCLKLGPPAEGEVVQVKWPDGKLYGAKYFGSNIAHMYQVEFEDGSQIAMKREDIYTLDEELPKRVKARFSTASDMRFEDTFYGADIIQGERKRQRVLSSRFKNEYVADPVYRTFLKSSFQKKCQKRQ
Large T antigen, sequence (P03070 whole entry): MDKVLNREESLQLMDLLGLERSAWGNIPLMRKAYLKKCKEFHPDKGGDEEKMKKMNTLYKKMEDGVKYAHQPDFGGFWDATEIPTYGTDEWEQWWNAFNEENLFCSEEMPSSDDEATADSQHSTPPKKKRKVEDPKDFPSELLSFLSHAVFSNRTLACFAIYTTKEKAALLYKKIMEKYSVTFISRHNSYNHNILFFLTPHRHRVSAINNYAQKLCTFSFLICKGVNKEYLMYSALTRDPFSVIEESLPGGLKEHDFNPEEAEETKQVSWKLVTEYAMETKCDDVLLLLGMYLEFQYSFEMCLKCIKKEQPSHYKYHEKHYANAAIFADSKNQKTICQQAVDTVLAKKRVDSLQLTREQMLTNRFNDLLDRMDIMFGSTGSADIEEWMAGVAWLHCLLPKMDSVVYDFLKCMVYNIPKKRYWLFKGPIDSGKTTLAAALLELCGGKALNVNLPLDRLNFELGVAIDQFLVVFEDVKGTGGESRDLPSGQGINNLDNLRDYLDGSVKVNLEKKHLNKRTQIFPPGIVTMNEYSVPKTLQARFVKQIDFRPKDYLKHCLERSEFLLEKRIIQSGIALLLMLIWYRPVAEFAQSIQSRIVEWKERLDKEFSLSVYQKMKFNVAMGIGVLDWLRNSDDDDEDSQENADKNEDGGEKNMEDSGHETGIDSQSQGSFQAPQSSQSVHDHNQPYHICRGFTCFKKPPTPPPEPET
Wee1-like protein kinase, sequence (P30291 whole entry, the tested form may be a part): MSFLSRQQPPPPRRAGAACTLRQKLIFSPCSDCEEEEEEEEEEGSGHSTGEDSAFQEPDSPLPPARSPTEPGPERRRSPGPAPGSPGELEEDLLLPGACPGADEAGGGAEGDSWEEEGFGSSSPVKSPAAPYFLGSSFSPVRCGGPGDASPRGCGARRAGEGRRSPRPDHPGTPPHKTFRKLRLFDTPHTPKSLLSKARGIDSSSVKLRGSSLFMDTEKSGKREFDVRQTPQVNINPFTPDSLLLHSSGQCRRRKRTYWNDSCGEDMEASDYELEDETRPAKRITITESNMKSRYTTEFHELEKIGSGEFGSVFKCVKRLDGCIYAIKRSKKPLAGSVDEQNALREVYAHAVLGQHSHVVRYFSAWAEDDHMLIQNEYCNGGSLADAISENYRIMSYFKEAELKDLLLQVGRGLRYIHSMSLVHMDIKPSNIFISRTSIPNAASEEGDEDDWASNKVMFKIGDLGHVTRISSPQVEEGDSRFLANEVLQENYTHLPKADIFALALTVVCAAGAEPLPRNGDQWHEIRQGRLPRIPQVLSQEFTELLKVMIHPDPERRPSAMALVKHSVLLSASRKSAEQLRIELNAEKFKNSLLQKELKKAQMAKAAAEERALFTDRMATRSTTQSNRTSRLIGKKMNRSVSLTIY
Beta Lactamase, sequence (Q932Y6 whole entry): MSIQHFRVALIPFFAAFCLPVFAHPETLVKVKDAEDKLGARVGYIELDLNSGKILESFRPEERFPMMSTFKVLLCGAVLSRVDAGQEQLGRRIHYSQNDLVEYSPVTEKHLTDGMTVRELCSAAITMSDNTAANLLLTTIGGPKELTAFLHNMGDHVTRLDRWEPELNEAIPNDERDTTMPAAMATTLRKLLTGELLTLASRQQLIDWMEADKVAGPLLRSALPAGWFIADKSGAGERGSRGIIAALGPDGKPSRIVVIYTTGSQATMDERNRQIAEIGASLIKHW
Small ubiquitin-related modifier 2, sequence (P61956 whole entry): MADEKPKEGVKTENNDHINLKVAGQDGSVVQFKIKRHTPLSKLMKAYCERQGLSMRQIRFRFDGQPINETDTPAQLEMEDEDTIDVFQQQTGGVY

As to `O=[N+]([O-])c1ccc(Sc2cccc[n+]2[O-])c2nonc12`, in experiment [1], the AC50 (usually the concentration giving half of the maximal activity seen) is 5.53 µM (active). In addition, the values for the IC50 in experiment [2] and in experiment [4] were 7.63 µM (active) and 448 nM (active), respectively. The EC50 (as a rule, the midpoint of the concentration-response curve) in [3] was > 1.84 µM (active).

As to `N#Cc1c(N2CCCCC2)nc(N)c2c(N)nc(SCC(=O)O)cc12`, the AC50 in experiment [5] is 5.4 µM (active). For the same compound, the IC50 is 33.7 µM (active) in [6], 10.6 µM (active) in experiment [7] and > 7.45 µM (active) in experiment [8].

On to `Oc1c(Cl)cc(Cl)c(Cl)c1Cc1c(O)c(Cl)cc(Cl)c1Cl` [HEXACHLOROPHENE], for which the IC50 in experiment [9] is 3 nM (active); in [10], 34.5 µM (active); in [11], 8.49 µM (active).

On to `CC1(C)Cc2ccccc2C2=NNC(=O)C2=N1`, for which the CC50 in experiment [12] is 31.2 µM (active). In addition, the AC50 in experiment [13] is 35.3 µM (active).

As to `Oc1ccc(NC(=S)N=Nc2c(O)[nH]c3ccccc23)cc1`, the IC50 is > 49.8 µM (inactive) in experiment [14], > 20 µM (inactive) in [15], > 66 µM (inactive) in experiment [16] and > 66 µM (inactive) in experiment [17].

For `CCCC(=O)NC(c1ccc(C(C)C)cc1)c1ccc2cccnc2c1O` (stereo not given), the CC50 in experiment [18] is 2.88 µM (active). The results for the EC50 in experiment [19] and in experiment [25] were 2.35 µM (active) and 3.75 µM (active), respectively. Besides, the IC50 is 24.8 µM (inactive) in experiment [20] and > 25 µM (active) in experiment [23]. The results for the AC50 in experiment [21], in experiment [22] and in [24] were 470 nM (active), 938 nM (active) and 5.04 µM (active), respectively.

Source of the values: ChEMBL document CHEMBL1201862, “PubChem BioAssay data set” (2004).
